# Read-outs that look alike come from different tables or passages of the source.
# Legend:
# [1] = system: parental HEK cells; test: HEK parental Antagonist Counterscreen Assay (non-transfected cells, acetylcholine control); assay type: cell-based; conditions: for EC50: Homo sapiens, HEK293, acetylcholine as control, scientific notation, molarity
# [2] = target: T1, GPR139 (Homo sapiens, UniProt Q6DWJ6)
# T1 sequence (Q6DWJ6 1-353): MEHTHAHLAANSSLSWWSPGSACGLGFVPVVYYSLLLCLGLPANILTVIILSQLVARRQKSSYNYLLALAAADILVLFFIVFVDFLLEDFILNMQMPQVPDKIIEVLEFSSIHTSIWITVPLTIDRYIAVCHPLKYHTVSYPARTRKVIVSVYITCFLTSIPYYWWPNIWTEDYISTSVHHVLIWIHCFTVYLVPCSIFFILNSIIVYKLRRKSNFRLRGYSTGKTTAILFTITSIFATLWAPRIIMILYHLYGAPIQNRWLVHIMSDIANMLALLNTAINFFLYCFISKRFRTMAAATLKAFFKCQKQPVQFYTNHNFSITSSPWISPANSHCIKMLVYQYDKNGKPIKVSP
# Experimental: (§1) GPR activity was assessed using a calcium detection assay. GPR139 agonists stimulate an increase in intracellular calcium in HEK-GPR139 cells. Agonists increase the release of intracellular calcium, while antagonists decrease the release of intracellular calcium, as compared to an EC80 stimulation of the know agonist S-JNJ-63533054. The positive control for the agonist mode was cells treated with EC100 of known agonist S-JNJ-63533054. Negative control samples were treated with DMSO. The antagonist high control in cells was EC80 of S-JNJ-63533054+IC100 S-JNJ-3792165, while cells were treated with EC80 of S-JNJ-63533054+DMSO for the low control. Intracellular calcium was measured using Calcium 5.
# (§2) HEK cells were transfected the DNA encoding GPR139 and incubated for 24 hours. 3000 cells/well in 3 μL HEPES and 1% DMSO were seeded into 1536-well plates. 3 μL Calcium 5 was then added to each well and cells were incubated for 60 min. at 37° C. in 5% CO2 and 95% relative humidity. Cells were pretreated with 50 nL DMSO (5 min. at room temperature in the dark) to stabilize response and desensitize cells to DMSO. A 5 second basal read was recorded and compounds in 30 nL were added to the cells, followed by a 150 second read.
# (§3) B. Antagonist Mode: The “High Control” represented wells containing cells with GPR139+Antagonist IC100+Agonist EC80. “Low Control” represented wells containing cells with GPR139 with EC100 Agonist. “0% control” and sample field represented wells containing cells with GPR139 with EC80 Agonist with DMSO or compounds. The Z′ and S:B for this assay were calculated using the High Control and Low Control wells.
# (§4) The HEK parental counterscreen utilized the same cells but not transfected with the plasmid. Acetylcholine was used in place of GPR139 agonist as the control compound. The cells were plated overnight, similar to the HEK antagonist counterscreen protocol.
# (§5) The GPR139 Agonist and Antagonist titration assays employed the same reagents, protocols, and detection systems as the primary assays, but tested each as 10 point dose response starting at 676 nM concentration in triplicate with 1:3 dilutions. The HEK parental counterscreens utilized the same cells but not transfected with the plasmid. Acetylcholine was used in place of GPR139 agonist as the control compound. The cells were plated overnight, similar to the HEK antagonist counterscreen protocol.
# (§6) For each test compound, percent activation was plotted against compound concentration. A four parameter equation describing a sigmoidal dose-response curve was then fitted with adjustable baseline using Assay Explorer software (Symyx Technologies Inc.).
# [3] = target: T1, GPR139; test: GPR139 Agonist titration / agonist counterscreen assay (calcium detection, HEK-GPR139 cells); assay type: cell-based; design: expressed in transfected cells; host or cells: HEK Aequorin cells, Maxcyte transient transfection; conditions: agonist counterscreen of the antagonists; for EC50: scientific notation, molarity, read-out: GRP139 Agonist activity EC50
# Experimental: GPR activity was assessed using a calcium detection assay. […] Negative control samples were treated with DMSO. […] Intracellular calcium was measured using Calcium 5.
# [4] = target: T1, GPR139; test: GPR139 Antagonist titration assay (calcium detection, HEK-GPR139 cells, vs EC80 of S-JNJ-63533054); conditions: for GPR139 Antagonist Activity Averaged Max % Response (±St. Dev.): activity relative to known control; for GPR139 Antagonist Activity Hill Slope: fitted dose-response curve; for GPR139 Antagonist Activity Lipophilic Efficiency (logD): based on logD; for GPR139 Antagonist Activity Lipophilic Efficiency (logP): based on logP
# Experimental: as §1, §2, §3, §4, §5, §6
# [5] = target: T1, GPR139; test: [3H]JNJ-63533054 radioligand competition binding assay on membranes of HEK293T/17 cells; design: HA signal peptide (HASP) (N); expressed in transfected cells; host or cells: HEK293T/17 cells (membrane preparation); conditions: for inhibition at 10 µM: 10 μM of the indicated compound, (10 μM) JNJ-63533054 as printed in title; for Ki: Ki=IC50/(1+C/Kd), membranes of HEK293T/17 cells expressing human GPR139, read-out: Ki ± SEM
# Source text: Eighteen compounds were selected for additional study. The compounds were re-synthesized and tested in radioligand binding competition assays for their ability to displace [^3H]-labeled reference agonist JNJ-63533054 on GPR139. The GPR139 construct used (pCDNA3.1-HASP-HA-GPR139) contained an N-terminal HA signal peptide (HASP), followed by an HA tag and human GPR139 (NM_001002911.4). HEK293T/17 cells were maintained in Dulbecco's modified Eagle's medium with 10% (v/v) fetal bovine serum, nonessential amino acids, and 1 mM sodium pyruvate.
# Competition binding assay: Radioligand binding assay used human GPR139 expressed in HEK293T/17 cells. HEK293T/17 cells were transfected pCDNA3.1-HASP-HA-GPR139. 48 h after, cells were detached from plates by pipetting with PBS, centrifuged at 500×g for 5 min, and then the fluid was aspirated away. The cell pellets were frozen with liquid nitrogen and stored at −80° C. Pellets were homogenized in TE buffer (50 mM Tris-HCl, pH 7.4, 5 mM EDTA) and centrifuged at 1000×g at 4° C. for 5 min. Supernatant was collected and recentrifuged at 30,000×g at 4° C. for 30 min. The pellet was rehomogenized in TE buffer and incubated for 60 minutes at room temperature with eight concentrations of [^3H]JNJ-63533054 (specific activity 24.7 Ci/mmol) ranging from 0.024 nM to 400 nM. The binding reaction was terminated by filtration through GF/C filter (Waterman) followed by washes with cold TE buffer. Filters were dried in a hood overnight followed by the addition of scintillation fluid. Bound radioactivity was counted on a Hidex 600 liquid scintillation counter. […] Nonspecific binding was determined with 10 μM JNJ-63533054. The Kd values of the radioligands and IC50 of the antagonist were calculated by Graphpad Prism. Ki values were calculated as Ki=IC50/(1+C/Kd), where C is concentration of the radioligand.
# Various concentrations of selected ligands were then added in the presence of 10 nM [^3H]-JNJ-63533054 and their ability to displace [^3H]labeling on cellular membranes was assessed. FIGS. 3B and 3C present representative data obtained in these experiments. […] The results of these experiments are presented in the Table 3 and confirm selective binding the compounds to GPR139 thereby validating their interaction with the intended target.
Structure (SMILES),HEK antagonist activity Averaged Max % Response (±St. Dev.) [1] [%],GPR139 Antagonist Activity Lipophilic Efficiency (logD) [2],GPR139 Antagonist Activity Lipophilic Efficiency (logP) [2],GRP139 Agonist activity Averaged Max % Response (±St. Dev.) [3],EC50 [3] [µM],GPR139 Antagonist Activity Ligand Efficiency [4],GPR139 Antagonist Activity Averaged Max % Response (±St. Dev.) [4] [%],GPR139 Antagonist Activity Hill Slope [4],EC50 [1] [µM],EC50 [4] [µM],GPR139 Antagonist Activity Lipophilic Efficiency (logD) [4],GPR139 Antagonist Activity Lipophilic Efficiency (logP) [4],inhibition at 10 µM [5] [%],Ki [5] [µM]
O=C(Nc1ccccc1C(=O)O)c1ccc(Oc2ccc([N+](=O)[O-])cc2)cc1 [SR-01000201144],81.74 ± 3.36,4.02,0.66,19.36 ± 5.93%,> 14.1,0.27,67.66 ± 7.67,2.60,–,–,–,–,–,–
Cc1ccc(-n2cc(-c3ccccc3)nc2SCC(=O)Nc2ccccc2)cc1 [SR-01000555455],6.61 ± 6.46,−1.3E+0,−1.3E+0,2.28 ± 5.10%,> 13.3,0.24,52.97 ± 3.58,0.71,–,–,–,–,–,–
Cc1ccc(-n2cc(-c3ccccc3)nc2SCC(=O)Nc2ccc(F)cc2)cc1 [SR-01000555461],0.37 ± 8.79,−954.3E−3,−954.4E−3,5.29 ± 2.24%,> 14,0.25,77.29 ± 7.71,1.40,–,–,–,–,–,–
O=C(NCCCN1CCCC1=O)c1ccc(NCc2ccc(F)cc2)c(S(=O)(=O)Nc2cccc(C(F)(F)F)c2)c1 [SR-01000575726],42.61 ± 24.54,2.05,1.85,4.26 ± 2.46%,> 13.9,0.18,68.96 ± 6.17,0.63,–,–,–,–,–,–
CCOC(=O)C(CC)Oc1ccc2c(C)c(Cc3ccccc3)c(=O)oc2c1 (centres unmarked) [SR-01000421299],7.76 ± 14.27,–,–,10.58 ± 2.83%,> 9.8,0.26,74.1 ± 13.55,1.98,> 9.8,7.2,0.17,0.17,65 ± 3.44,1.81 ± 0.04
COc1ccccc1CNC(=O)N1c2ccccc2Sc2ccccc21 [SR-01000506165],5.72 ± 9.39,–,–,7.66 ± 5.35%,> 14.6,0.30,86.87 ± 2.82,0.52,> 14.6,2.8,1.14,1.14,103 ± 1.95,1.1 ± 0.02
O=C(CCCC(=O)OCC(Cl)=C(Cl)Cl)Nc1ccccc1F [SR-01000195221],28.17 ± 14.51,–,–,3.53 ± 6.53%,> 14.1,0.33,86.87 ± 1.46,0.88,> 14.1,6.3,1.71,1.71,77.7 ± 1.19,9.98 ± 0.23
COc1ccc(-c2noc(CN3CCCN(c4ccc(F)cc4)CC3)n2)c(OC)c1OC [SR-01000169333],9.54 ± 10.14,–,–,2.42 ± 7.61%,> 14.1,0.22,66.19 ± 8.60,1.11,> 14.1,8.4,1.64,1.37,64.5 ± 1.23,4.09 ± 0.09
CCCOC(=O)c1ccc(NC(=O)CSc2ccccc2)cc1 [SR-01000244770],15.65 ± 7.33,–,–,7.91 ± 4.93%,> 14.1,0.31,82.77 ± 1.38,1.77,> 14.1,6.9,1.07,1.07,56.3 ± 7.8,146 ± 0.003
CC(=O)N1N=C(c2ccc(C)cc2)CC1c1ccccc1Cl (centres unmarked) [SR-01000462122],17.80 ± 3.32,–,–,−2.6E+0 ± 5.95 ^ %,> 16.2,0.32,79.69 ± 2.61,1.19,> 16.2,8.7,1.04,1.04,22 ± 2.59,13.3 ± 0.3

# From US20250099420A1, “SMALL MOLECULE MODULATORS OF GPR139 COMPLEX” (University of Florida Research Foundation, Incorporated, priority 2022, published 2025)
